Structures are written as SMILES.

The first assay concerns the target T1, mTOR kinase (mTORC1 and mTORC2 kinase complex) (Homo sapiens, UniProt P42345).
T1 construct: purchased DiscoverX; host or cells: HEK-293
As to the kind of experiment: In vitro evaluation of mTOR kinase inhibitory activity (DiscoverX ligand-bead competition binding, qPCR readout).
Details: not given
How it is done: Experimental Embodiment 1: In Vitro Evaluation of mTOR Kinase Inhibitory Activity This experiment was performed by DiscoverX. All materials and methods were obtained from DiscoverX.
Kinase activity analysis.
1. Labeled mTOR kinase was stably expressed in HEK-293 cells.
2. Streptavidin magnetic beads were treated with biotinylated small molecule ligands at room temperature for 30 minutes to produce affinity resin for kinase analysis;
3. Ligand beads were blocked with excess biotin and washed with buffer (1% bovine serum albumin, […]) to remove unbound ligand and non-specifically bound ligand;
4. The assembly of kinase and ligand and affinity beads, and the binding reaction between the compound and the three were performed in buffer (20% blocking buffer, 0.17x phosphate buffer, 0.05% Tween […]);
5. The test compounds were dissolved in dimethyl sulfoxide;
6. All test compounds were dissolved in DMSO, and then directly diluted […]
7. The solution was placed in a 384-well polypropylene plate, wherein the volume of each well was 0.02 mL;
8. The plate was shaked for an hour at room temperature;
9. The plate was washed with buffer (1× PBS, 0.05% Tween 20);
10. The affinity beads were resuspended in buffer (1× PBS, 0.05% Tween […] non-biotin affinity ligand) and incubated at room temperature for 30 minutes;
11. The kinase concentration in the eluate was deteced by qPCR.
Turning to `C[C@H]1COCCN1c1nc(N2CCOC3(CC3)C2)nc2nc(-c3ccc4nc(N)ncc4c3)ccc12` [Embodiment 16], the affinity, expressed as Kd, was 1.5 nM.
On the same count and under the same terms, under `CNC(=O)c1cccc(-c2ccc3c(N4CCOC[C@@H]4C)nc(N4CC5(CCOCC5)C4)nc3n2)c1` [Embodiment 6] stands 12 nM.
On the same count and under the same terms, next, `CNC(=O)c1cccc(-c2ccc3c(N4CCOC[C@@H]4C)nc(C4CCC5(CC4)OCCO5)nc3n2)c1` [Embodiment 5]: 0.66 nM; `CNC(=O)c1cccc(-c2ccc3c(N4CCOCC4C)nc(N4CCOC5CC54)nc3n2)c1` (single isomer, unassigned) [Embodiment 18-2]: 0.5 nM; `C[C@H]1COCCN1c1nc(N2CCOC3(C2)CC(F)(F)C3)nc2nc(-c3cccc(C(=O)NC4CC4)c3)ccc12` [Embodiment 29]: 2.7 nM.
On the same count and under the same terms, under `CNC(=O)c1cccc(-c2ccc3c(N4CCOCC4C)nc(N4CCOC5(CCSC5)C4)nc3n2)c1` (single isomer, unassigned) [Embodiment 45-1] stands 0.5 nM; under `CNC(=O)c1cccc(-c2ccc3c(N4CCOC[C@@H]4C)nc(N4CCOCC45CC5)nc3n2)c1` [Embodiment 20], 0.97 nM.
For the molecule `CNC(=O)c1cccc(-c2ccc3c(N4CCOCC4C)nc(N4CCOC5CC54)nc3n2)c1` (single isomer, unassigned) [Embodiment 18-1], binding was characterised by a dissociation constant (Kd) of 3 nM.
The same measure, in the same setting: next, `CNC(=O)c1cccc(-c2ccc3c(N4CCOC[C@@H]4C)nc(N4CCOC5(CNC5)C4)nc3n2)c1` [Embodiment 15]: 3.3 nM; `CNC(=O)c1cccc(-c2ccc3c(N4CCOCC4C)nc(N4CCOC5(CC[S+]([O-])C5)C4)nc3n2)c1` (single isomer, unassigned) [Embodiment 46-1]: 1 nM; `C[C@H]1COCCN1c1nc(N2CCOC3(CC3)C2)nc2nc(-c3cccc(-c4nc[nH]n4)c3)ccc12` [Embodiment 19]: 3 nM.
As for `C[C@H]1COCCN1c1nc(N2CCOC3(CC3)C2)nc2nc(-c3cccc(C(=O)NO)c3)ccc12` [Embodiment 4], the Kd (usually a measure of binding affinity in units of concentration) amounted to 0.22 nM.
Same read-out and setting: next, `C[C@H]1COCCN1c1nc(N2CCOC3(CC3)C2)nc2nc(-c3ccc4ccc(N)nc4c3)ccc12` [Embodiment 14]: 0.25 nM.
Same read-out and setting: next, `CNC(=O)c1cccc(-c2ccc3c(N4CCOC[C@@H]4C)nc(N4CCOC5(CN(C)C5)C4)nc3n2)c1` [Embodiment 27]: 6.6 nM; `CNC(=O)c1cccc(-c2ccc3c(N4CCOCC4C)nc(N4CCOC5(CCS(=O)(=O)C5)C4)nc3n2)c1` (single isomer, unassigned) [Embodiment 47-2]: 7.9 nM.
The same measure, in the same setting: under `CC1COCCN1c1nc(N2CCOC3(CCCC3)C2)nc2nc(-c3cccc(C(N)=O)c3)ccc12` (stereo not shown) [Embodiment 49] stands 0.3 nM; under `CNC(=O)c1cccc(-c2ccc3c(N4CCOCC4C)nc(N4CCC5(CCOC5)CC4)nc3n2)c1` (stereo not shown) [Embodiment 8], 5.9 nM; under `CNC(=O)c1cccc(-c2ccc3c(N4CCOC[C@@H]4C)nc(N4CCOC5(C4)CC(F)(F)C5)nc3n2)c1` [Embodiment 28], 1.4 nM.
Regarding `CONC(=O)c1cccc(-c2ccc3c(N4CCOC[C@@H]4C)nc(N4CCOC5(CC5)C4)nc3n2)c1` [Embodiment 3], binding was characterised by a dissociation constant (Kd) of 0.32 nM.
Same read-out and setting: next, `CNC(=O)c1cccc(-c2ccc3c(N4CCOC[C@@H]4C)nc(N4CCC5(CC4)COC5)nc3n2)c1` [Embodiment 7]: 6.4 nM; `CNC(=O)c1cccc(-c2ccc3c(N4CCOC[C@@H]4C)nc(N4CCCC5(C4)OCCO5)nc3n2)c1` [Embodiment 31]: 5 nM.
On the same count and under the same terms, next, `CNC(=O)c1cccc(-c2ccc3c(N4CCOC[C@@H]4C)nc(N4CCOC5(C4)CS(=O)(=O)C5)nc3n2)c1` [Embodiment 43]: 12 nM; `CNC(=O)c1cccc(-c2ccc3c(N4CCOCC4C)nc(N4CCOC5(CCSC5)C4)nc3n2)c1` (single isomer, unassigned) [Embodiment 45-2]: 1.7 nM.
On the same count and under the same terms, under `CNC(=O)c1cccc(-c2ccc3c(N4CCOCC4C)nc(N4CCOC5(CNC(=O)C5)C4)nc3n2)c1` (single isomer, unassigned) [Embodiment 53-2] stands 1.8 nM; under `CNC(=O)c1cccc(-c2ccc3c(N4CCOC[C@@H]4C)nc(N4CCOC5(CSC5)C4)nc3n2)c1` [Embodiment 41], 0.94 nM; under `CC1COCCN1c1nc(N2CCOC3(CCOC3)C2)nc2nc(-c3cccc(C(N)=O)c3)ccc12` (single isomer, unassigned) [Embodiment 50-1], 1.9 nM.
`C[C@H]1COCCN1c1nc(N2CCOC3(CC3)C2)nc2nc(-c3cccc(C(=O)NC(C)(C)C)c3)ccc12` [Embodiment 22]: binding was characterised by a dissociation constant (Kd) of 1.5 nM. This Kd and that of the molecule before are within 1.5-fold of each other.
Same read-out and setting: next, `C[C@H]1COCCN1c1nc(N2CCOC3(CC3)C2)nc2nc(-c3cccc(-c4ccn[nH]4)c3)ccc12` [Embodiment 17]: 3.4 nM; `CNC(=S)c1cccc(-c2ccc3c(N4CCOC[C@@H]4C)nc(N4CCOC5(CC5)C4)nc3n2)c1` [Embodiment 2]: 0.15 nM.
The same measure, in the same setting: next, `CNC(=O)c1cccc(-c2ccc3c(N4CCOC[C@@H]4C)nc(N4CCOC5(COC5)C4)nc3n2)c1` [Embodiment 40]: 0.78 nM; `CNC(=O)c1cccc(-c2ccc3c(N4CCOCC4C)nc(N4CCOC5(CC[S+]([O-])C5)C4)nc3n2)c1` (single isomer, unassigned) [Embodiment 46-2]: 4.9 nM.
On the same count and under the same terms, next, `CNC(=O)c1cccc(-c2ccc3c(N4CCOCC4C)nc(N4CC5(CCOC5)OCC4C)nc3n2)c1` (single isomer, unassigned) [Embodiment 48-1]: 1.8 nM.
Take `CNC(=O)c1cccc(-c2ccc3c(N4CCOCC4C)nc(N4CCOC5(CCS(=O)(=O)C5)C4)nc3n2)c1` (single isomer, unassigned) [Embodiment 47-1]: binding was put at a Kd of 7.9 nM.
Still for that read-out and setting: next, `CNC(=O)c1cccc(-c2ccc3c(N4CCOCC4C)nc(N4CCOC5(CNC(=O)C5)C4)nc3n2)c1` (single isomer, unassigned) [Embodiment 53-1]: 1.1 nM; `C[C@H]1COCCN1c1nc(N2CCOC3(CC3)C2)nc2nc(-c3ccc4cnc(N)nc4c3)ccc12` [Embodiment 25]: 1.4 nM.
The same measure, in the same setting: under `CNC(=O)c1cccc(-c2ccc3c(N4CCOC[C@@H]4C)nc(N4CCOC5(C4)C[S+]([O-])C5)nc3n2)c1` (stereo partly shown) [Embodiment 42] stands 0.93 nM.
Same read-out and setting: next, `CNC(=O)c1cccc(-c2ccc3c(N4CCOCC4C)nc(N4CCC5(CC4)CC5)nc3n2)c1` (stereo not shown) [Embodiment 10]: 7.8 nM.
Regarding `Nc1nc2cc(-c3ccc4c(N5C6CCC5COC6)nc(N5CCOC6(CC6)C5)nc4n3)ccc2o1` [Embodiment 11], the affinity, expressed as Kd, was 1.2 nM.

A further assay deals with human breast cancer MCF-7 cell subcutaneous xenograft tumor. Nature of the assay: In vivo pharmacodynamic study, MCF-7 subcutaneous xenograft tumor. As to conditions: 15 mg/kg. Details: species or system BALB/c nude mouse. An excerpt:
Experimental Embodiment 4: In Vivo Pharmacodynamic Study on BALB/c Nude Mouse Model of Human Breast Cancer MCF-7 Cell Subcutaneous Xenograft Tumor
Experimental objective: To study the efficacy of the test compounds on human breast cancer MCF-7 cell subcutaneous xenograft tumor in BALB/c nude mouse model.
Experimental animals: Female BALB/c nude mice, 6-8 weeks old, weighing 18-22 grams; supplier: Shanghai Xipuer-Bikai Experimental Animal Co., Ltd.
Human breast cancer MCF-7 cells (ECACC, article number: 86012803) were subjected to in vitro monolayer culture under the conditions of EMEM (EBSS)+2 mM […]+1% Non Essential Amino Acids (NEAA) medium containing 10% fetal bovine serum, 100 U/mL penicillin and 100 μg/mL streptomycin, and 37° C., 5% CO2incubator. Conventional digestion treatment was carried out with trypsin-EDTA twice a week for cell passage. When the cell saturation was 80%-90%, and the quantity reached the requirement, the cells were collected, counted and inoculated.
Estrogen tablets (0.18 mg) were inoculated into the left back of each mouse three days before cell inoculation, 0.2 mL (1×10^7) MCF-7 cells (added with matrigel, volume ratio of 1:1) were subcutaneously inoculated into the right back of each mouse. When the average volume of tumor reached 142 mm^3, the mice were divided into groups and began to be administrated.
The test compounds were prepared into clear solutions of 0.75 mg/mL, 1.5 mg/mL and 3 mg/mL. The vehicles were 5% DMSO+30% polyethylene glycol 300+65% water.
The experimental indexes were used for investigating whether the growth of the tumors had been inhibited, delayed or cured. The diameters of the tumors were measured with vernier calipers twice a week. The calculation formula of the tumor volume was: V=0.5a×b^2, wherein a and b represent the long and short diameters of the tumor respectively.
The antitumor efficacy of the compound was evaluated by TGI (%) or relative tumor proliferation rate T/C (%). TGI (%) reflects the inhibition rate of the tumor growth. Calculation of TGI (%): TGI (%)=[1−(average tumor volume at the end of administration in the treatment group−average tumor volume at the beginning of administration in the treatment group)/(average tumor volume at the end of treatment in the vehicle control group−average tumor volume at the beginning of treatment in the vehicle control group)]×[…].
Relative tumor proliferation rate T/C (%): The calculation formula was as follows: T/C %=TRTV/CRTV at the beginning of the treatment (TRTV: treatment group RTV; CRTV: negative control group RTV). The relative tumor volume (RTV) was calculated according to the results of tumor measurement. The calculation formula was RTV=Vt/V0, wherein V0 is the average tumor volume measured during administration of the groups (i.e. d0), and Vt is the average tumor volume during a certain measurement, the TRTV and CRTV were taken on the same day.
Statistical analysis included the mean and standard error (SEM) of tumor volume at each time point in each group. […] The comparison between two groups was analyzed by T-test, and the comparison between three or more groups was analyzed by one-way ANOVA.
Consider `CC1COCCN1c1nc(N2CCOC3(CCCC3)C2)nc2nc(-c3cccc(C(N)=O)c3)ccc12` (stereo not shown) [Embodiment 49], for which the T/C (as a rule, the ratio of treated to control) is recorded as 121.62% and the TGI is reported as −37.89%.

Still in this assay, the particulars now being: 15 mg/kg, 27th day.
Take `CC1COCCN1c1nc(N2CCOC3(CCCC3)C2)nc2nc(-c3cccc(C(N)=O)c3)ccc12` (stereo not shown) [Embodiment 49]: the “RTV (27th day)” value was 5.07 ± 0.92.

Staying with this assay, now noted: 15 mg/kg, 27th day, mean ± SEM.
With `CC1COCCN1c1nc(N2CCOC3(CCCC3)C2)nc2nc(-c3cccc(C(N)=O)c3)ccc12` (stereo not shown) [Embodiment 49], the “Tumor volume (27th day)” value was 759 ± 174 mm^3.

Staying with this assay, now noted: 15 mg/kg, day 0, mean ± SEM.
On to `CC1COCCN1c1nc(N2CCOC3(CCCC3)C2)nc2nc(-c3cccc(C(N)=O)c3)ccc12` (stereo not shown) [Embodiment 49], for which the “Tumor volume (day 0)” value is reported as 144 ± 14 mm^3.
